Results as given in patent publication US20250222146A1, “Radiopharmaceuticals Targeting Somatostatin Receptor 2 and Uses Thereof” (RayzeBio, Inc., priority 2023, published 2025).
Where two headings read alike, the source gives them in different places. Numbered stars: 1 amine (or outer) side, 2 acyl side, 3 side chain; on linkers, the order of the positions; unused ones are H or OH. Square brackets hold non-standard residues; d marks the D form. Peptide text beside a SMILES is read from it. * marks the point of attachment. DOTA(Lu)NH(CH2)6NHCOCH2 = O=C(CN1CCN2CCN3CCN(CC1)CC(=O)[O][Lu]([O]C(=O)C2)[O]C(=O)C3)NCCCCCCNC(=O)C*; X6 = O=C(CN1CCN2CCN3CCN(CC1)CC(=O)[O][Lu]([O]C(=O)C2)[O]C(=O)C3)NCCOCCOCCOCCNC(=O)C*; DOTA(Lu) = O=C1CN2CCN3CCN(CC(=O)*)CCN(CC2)CC(=O)[O][Lu]([O]1)[O]C(=O)C3; Ala(piperidin-4-yl) = O=C([C@H](CC1CCN([*:3])CC1)N[*:1])[*:2]; dTrp(βS-Me) = C[C@@H](c1c[nH]c2ccccc12)[C@@H](N)C(=O)O; Tyr(3,5-F2) = N[C@@H](Cc1cc(F)c(O)c(F)c1)C(=O)O; dNMeW = CN[C@H](Cc1c[nH]c2ccccc12)C(=O)O; Dip = N[C@H](C(=O)O)C(c1ccccc1)c1ccccc1; NMehCys = CN[C@@H](CCS)C(=O)O; NMeK = CN[C@@H](CCCCN)C(=O)O

Biological target: SSTR2 (Homo sapiens, UniProt P30874)
Assay: SSTR binding affinity by radioligand binding competition assay ([125I]-Tyr11-Somatostatin, membrane extracts)
Conditions: radioligand competition, [125I]-Tyr11-Somatostatin 0.1 nM, membrane extracts, Ki from IC50 by Cheng Prusoff

Chain of SSTR2 (P30874 whole entry): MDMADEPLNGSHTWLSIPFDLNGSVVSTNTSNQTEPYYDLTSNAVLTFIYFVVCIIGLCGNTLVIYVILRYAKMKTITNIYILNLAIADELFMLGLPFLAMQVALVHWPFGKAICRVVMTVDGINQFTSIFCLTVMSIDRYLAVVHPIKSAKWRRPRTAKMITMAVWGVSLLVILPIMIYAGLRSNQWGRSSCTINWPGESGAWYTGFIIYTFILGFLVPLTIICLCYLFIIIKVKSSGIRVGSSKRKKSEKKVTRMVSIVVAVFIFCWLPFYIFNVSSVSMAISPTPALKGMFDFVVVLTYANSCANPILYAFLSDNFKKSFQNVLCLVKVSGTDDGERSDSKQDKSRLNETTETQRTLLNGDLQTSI

Row | Compound | Ki (read-out: SSTR2 Ki) [nM] | Ki (SSTR2 Ki) [nM]
1 | C[C@@H](O)[C@@H]1NC(=O)[C@H](CCCCN)NC(=O)[C@@H](Cc2c[nH]c3ccccc23)NC(=O)[C@H](Cc2ccc(O)cc2)NC(=O)[C@H](CCSCC(=O)NCCCC[C@@H](NC(=O)CN2CCN3CCN4CCN(CC2)CC(=O)[O][Lu]([O]C(=O)C3)[O]C(=O)C4)C(=O)O)N(C)C(=O)[C@H](Cc2ccccc2)NC1=O [RB-0005278] | 1 to 3.33 | –
2 | C[C@@H](O)[C@@H]1NC(=O)[C@H](CCCCN)NC(=O)[C@@H](Cc2c[nH]c3ccccc23)NC(=O)[C@H](Cc2ccc(O)cc2)NC(=O)[C@H](CCSCC(=O)NCCOCCOCCOCCNC(=O)CN2CCN3CCN4CCN(CC2)CC(=O)[O][Lu]([O]C(=O)C3)[O]C(=O)C4)N(C)C(=O)[C@H](Cc2ccccc2)NC1=O [RB-0005284] | < 1 | –
3 | C[C@@H](O)[C@@H]1NC(=O)[C@H](CCCCN)NC(=O)[C@@H](Cc2c[nH]c3ccccc23)NC(=O)[C@H](Cc2ccc(O)cc2)NC(=O)[C@H](CCSCC(=O)NCCOCCOCCOCCNC(=O)CN2CCN3CCN4CCN(CC2)CC(=O)[O][Lu]([O]C(=O)C3)[O]C(=O)C4)N(C)C(=O)CNC1=O [RB-0005286] (cyclo(G[NMehCys](X6)Y[dW]KT)) | 10 to 33.3 | –
4 | C[C@@H](O)[C@@H]1NC(=O)[C@H](CCCCN)NC(=O)[C@@H](Cc2c[nH]c3ccccc23)N(C)C(=O)[C@H](Cc2ccc(O)cc2)NC(=O)[C@H](CCSCC(=O)NCCCCCCNC(=O)CN2CCN3CCN4CCN(CC2)CC(=O)[O][Lu]([O]C(=O)C3)[O]C(=O)C4)N(C)C(=O)[C@H](Cc2ccccc2)NC1=O [RB-0005330] (cyclo(F[NMehCys](DOTA(Lu)NH(CH2)6NHCOCH2)Y[dNMeW]KT)) | < 1 | –
5 | C[C@@H](O)[C@@H]1NC(=O)[C@H](CCCCN)NC(=O)[C@@H](Cc2c[nH]c3ccccc23)NC(=O)CNC(=O)[C@H](CCSCC(=O)NCCCCCCNC(=O)CN2CCN3CCN4CCN(CC2)CC(=O)[O][Lu]([O]C(=O)C3)[O]C(=O)C4)N(C)C(=O)[C@H](Cc2ccccc2)NC1=O [RB-0005694] (cyclo(F[NMehCys](DOTA(Lu)NH(CH2)6NHCOCH2)G[dW]KT)) | 1 to 3.33 | –
6 | C[C@@H]1NC(=O)[C@H](CCSCC(=O)NCCCCCCNC(=O)CN2CCN3CCN4CCN(CC2)CC(=O)[O][Lu]([O]C(=O)C3)[O]C(=O)C4)N(C)C(=O)[C@H](Cc2ccccc2)NC(=O)[C@H]([C@@H](C)O)NC(=O)[C@H](CCCCN)NC(=O)[C@@H](Cc2c[nH]c3ccccc23)NC1=O [RB-0005696] (cyclo(A[dW]KTF[NMehCys](DOTA(Lu)NH(CH2)6NHCOCH2))) | 10 to 33.3 | –
7 | C[C@@H](O)[C@@H]1NC(=O)[C@H](CCCCN)NC(=O)[C@@H](Cc2c[nH]c3ccccc23)NC(=O)[C@H](Cc2ccc(O)cc2)NC(=O)[C@H](CCNC(=O)CCCCCNC(=O)CN2CCN3CCN4CCN(CC2)CC(=O)[O][Lu]([O]C(=O)C3)[O]C(=O)C4)N(C)C(=O)[C@H](Cc2ccccc2)NC1=O [RB-0005717] | 10 to 33.3 | –
8 | C[C@@H](O)[C@@H]1NC(=O)[C@H](CCCCN)NC(=O)[C@@H](Cc2c[nH]c3ccccc23)NC(=O)[C@H](Cc2ccc(O)cc2)NC(=O)[C@H](CNC(=O)CCCCCNC(=O)CN2CCN3CCN4CCN(CC2)CC(=O)[O][Lu]([O]C(=O)C3)[O]C(=O)C4)N(C)C(=O)[C@H](Cc2ccccc2)NC1=O [RB-0005728] | 3.33 to 10 | –
9 | C[C@@H](O)[C@@H]1NC(=O)[C@H](CCCCN)NC(=O)[C@@H](Cc2c[nH]c3ccccc23)NC(=O)[C@H](Cc2ccc(O)cc2)NC(=O)[C@H](CNC(=O)[C@H](CC(=O)O)NC(=O)CCCCCNC(=O)CN2CCN3CCN4CCN(CC2)CC(=O)[O][Lu]([O]C(=O)C3)[O]C(=O)C4)N(C)C(=O)[C@H](Cc2ccccc2)NC1=O [RB-0005730] | < 1 | –
10 | C[C@@H](O)[C@@H]1NC(=O)[C@H](CCCCN)NC(=O)[C@@H](Cc2c[nH]c3ccccc23)NC(=O)[C@H](Cc2ccc(O)cc2)NC(=O)[C@H](CNC(=O)C[C@H](NC(=O)CCCCCNC(=O)CN2CCN3CCN4CCN(CC2)CC(=O)[O][Lu]([O]C(=O)C3)[O]C(=O)C4)C(=O)O)N(C)C(=O)[C@H](Cc2ccccc2)NC1=O [RB-0005732] | 33.3 to 100 | –
11 | C[C@@H](O)[C@@H]1NC(=O)[C@H](CCCCN)NC(=O)[C@@H](Cc2c[nH]c3ccccc23)NC(=O)[C@H](Cc2ccc(O)cc2)NC(=O)[C@H](CNC(=O)[C@@H](CC(=O)O)NC(=O)CCCCCNC(=O)CN2CCN3CCN4CCN(CC2)CC(=O)[O][Lu]([O]C(=O)C3)[O]C(=O)C4)N(C)C(=O)[C@H](Cc2ccccc2)NC1=O [RB-0005734] | 1 to 3.33 | –
12 | C[C@@H](O)[C@@H]1NC(=O)[C@H](CCCCN)NC(=O)[C@@H](Cc2c[nH]c3ccccc23)NC(=O)[C@H](Cc2ccc(O)cc2)NC(=O)[C@H](CNC(=O)C[C@@H](NC(=O)CCCCCNC(=O)CN2CCN3CCN4CCN(CC2)CC(=O)[O][Lu]([O]C(=O)C3)[O]C(=O)C4)C(=O)O)N(C)C(=O)[C@H](Cc2ccccc2)NC1=O [RB-0005736] | 3.33 to 10 | –
13 | C[C@@H](O)[C@@H]1NC(=O)[C@H](CCCCN)NC(=O)[C@@H](Cc2c[nH]c3ccccc23)NC(=O)[C@H](Cc2ccc(O)cc2)NC(=O)[C@H](CCSCC(=O)NCCOCCOCCOCCNC(=O)CN2CCN3CCN4CCN(CC2)CC(=O)[O][Lu]([O]C(=O)C3)[O]C(=O)C4)N(C)C(=O)[C@H](COc2ccccc2)NC1=O [RB-0005738] | < 1 | –
14 | C[C@@H](O)[C@@H]1NC(=O)[C@H](CCCCN)NC(=O)[C@@H](Cc2c[nH]c3ccccc23)NC(=O)[C@H](Cc2cc(F)c(O)c(F)c2)NC(=O)[C@H](CCSCC(=O)NCCCCCCNC(=O)CN2CCN3CCN4CCN(CC2)CC(=O)[O][Lu]([O]C(=O)C3)[O]C(=O)C4)N(C)C(=O)[C@H](Cc2ccccc2)NC1=O [RB-0005740] (cyclo(F[NMehCys](DOTA(Lu)NH(CH2)6NHCOCH2)[Tyr(3,5-F2)][dW]KT)) | < 1 | –
15 | C[C@@H]1NC(=O)[C@H](CCCCN)NC(=O)[C@@H](Cc2c[nH]c3ccccc23)NC(=O)[C@H](Cc2ccc(O)cc2)NC(=O)[C@H](CCSCC(=O)NCCCCCCNC(=O)CN2CCN3CCN4CCN(CC2)CC(=O)[O][Lu]([O]C(=O)C3)[O]C(=O)C4)N(C)C(=O)[C@H](Cc2ccccc2)NC1=O [RB-0005744] (cyclo(AF[NMehCys](DOTA(Lu)NH(CH2)6NHCOCH2)Y[dW]K)) | < 1 | –
16 | C[C@@H](O)[C@@H]1NC(=O)[C@H](CC2CCNCC2)NC(=O)[C@@H]([C@@H](C)c2c[nH]c3ccccc23)NC(=O)[C@H](Cc2ccc(O)cc2)NC(=O)[C@H](CCCCNC(=O)CN2CCN3CCN4CCN(CC2)CC(=O)[O][Lu]([O]C(=O)C3)[O]C(=O)C4)N(C)C(=O)[C@H](Cc2ccccc2)NC1=O [RB-0005797] (cyclo(F[NMeK](DOTA(Lu))Y[dTrp(βS-Me)][Ala(piperidin-4-yl)]T)) | < 1 | –
17 | C[C@@H]1NC(=O)[C@H]([C@@H](C)O)NC(=O)[C@H](CC2CCNCC2)NC(=O)[C@@H]([C@@H](C)c2c[nH]c3ccccc23)NC(=O)[C@H](Cc2ccc(O)cc2)NC(=O)[C@H](CCSCC(=O)NCCCCCCNC(=O)CN2CCN3CCN4CCN(CC2)CC(=O)[O][Lu]([O]C(=O)C3)[O]C(=O)C4)N(C)C1=O [RB-0005807] (cyclo(A[NMehCys](DOTA(Lu)NH(CH2)6NHCOCH2)Y[dTrp(βS-Me)][Ala(piperidin-4-yl)]T)) | < 1 | –
18 | C[C@@H]1NC(=O)[C@H]([C@@H](C)O)NC(=O)[C@H](CC2CCNCC2)NC(=O)[C@@H](Cc2c[nH]c3ccccc23)NC(=O)[C@H](C(c2ccccc2)c2ccccc2)NC(=O)[C@H](CCSCC(=O)NCCCCCCNC(=O)CN2CCN3CCN4CCN(CC2)CC(=O)[O][Lu]([O]C(=O)C3)[O]C(=O)C4)N(C)C1=O [RB-0005809] (cyclo(A[NMehCys](DOTA(Lu)NH(CH2)6NHCOCH2)[Dip][dW][Ala(piperidin-4-yl)]T)) | 1 to 3.33 | –
19 | C[C@@H](O)[C@@H]1NC(=O)[C@@H](CCCCN)NC(=O)[C@@H](Cc2c[nH]c3ccccc23)NC(=O)[C@H](Cc2ccc(O)cc2)NC(=O)[C@H](CCSCC(=O)NCCCCCCNC(=O)CN2CCN3CCN4CCN(CC2)CC(=O)[O][Lu]([O]C(=O)C3)[O]C(=O)C4)N(C)C(=O)[C@H](Cc2ccccc2)NC1=O [RB-0005827] | – | 10 to 33.3
20 | C[C@@H](O)[C@@H]1NC(=O)[C@H](CCCCN)NC(=O)[C@@H](Cc2c[nH]c3ccccc23)NC(=O)[C@H](Cc2ccc(O)cc2)NC(=O)[C@H](C2CCN(C(=O)CCCCCNC(=O)CN3CCN4CCN5CCN(CC3)CC(=O)[O][Lu]([O]C(=O)C4)[O]C(=O)C5)CC2)N(C)C(=O)[C@H](Cc2ccccc2)NC1=O [RB-0005852] | 33.3 to 100 | –
21 | C[C@@H](O)[C@@H]1NC(=O)[C@H](CCCCN)NC(=O)[C@@H](Cc2c[nH]c3ccccc23)NC(=O)[C@H](Cc2ccc(O)cc2)NC(=O)[C@H](CC2CCN(C(=O)CCCCCNC(=O)CN3CCN4CCN5CCN(CC3)CC(=O)[O][Lu]([O]C(=O)C4)[O]C(=O)C5)CC2)N(C)C(=O)[C@H](Cc2ccccc2)NC1=O [RB-0005854] | 10 to 33.3 | –
22 | C[C@@H](O)[C@@H]1NC(=O)[C@H](CCCCN)NC(=O)[C@H](Cc2c[nH]c3ccccc23)NC(=O)[C@H](Cc2ccc(O)cc2)NC(=O)[C@H](CCSCC(=O)NCCCCCCNC(=O)CN2CCN3CCN4CCN(CC2)CC(=O)[O][Lu]([O]C(=O)C3)[O]C(=O)C4)N(C)C(=O)[C@H](Cc2ccccc2)NC1=O [RB-0005858] | – | 1 to 3.33
23 | C[C@@H](O)[C@@H]1NC(=O)[C@H](CCCCN)NC(=O)[C@@H](Cc2c[nH]c3ccccc23)NC(=O)[C@H](Cc2ccc(O)cc2)NC(=O)[C@H](CCSCC(=O)NCCCCCCNC(=O)CN2CCN3CCN4CCN(CC2)CC(=O)[O][Lu]([O]C(=O)C3)[O]C(=O)C4)N(C)C(=O)[C@@H]2CCCN2C1=O [RB-0005864] (cyclo(KTP[NMehCys](DOTA(Lu)NH(CH2)6NHCOCH2)Y[dW])) | 1 to 3.33 | –
24 | C[C@@H](O)[C@@H]1NC(=O)[C@H](CCCCN)NC(=O)[C@@H](Cc2c[nH]c3ccccc23)NC(=O)[C@H](Cc2ccc(O)cc2)NC(=O)[C@@H](CCSCC(=O)NCCCCCCNC(=O)CN2CCN3CCN4CCN(CC2)CC(=O)[O][Lu]([O]C(=O)C3)[O]C(=O)C4)N(C)C(=O)[C@H](Cc2ccccc2)NC1=O [RB-0005866] | – | 1 to 3.33
